Laboratory results as given in DBAASP.
In brackets after ≈: the same amount, converted by molar mass.

Assays:
Assay in all cases: ≥ marks a high value that may be exact or a test limit, other limits are often not marked, values filed in µg/mL are converted to µM
[1] = system: Pseudomonas aeruginosa Ps4
[2] = system: Escherichia coli JW0013
[3] = system: Escherichia coli ATCC 25922
[4] = system: Escherichia coli B
[5] = system: Candida albicans F7-39/IDE99
[6] = system: Bacillus subtilis 168
[7] = system: Micrococcus luteus CCM 144
[8] = system: Pseudomonas aeruginosa
[9] = system: Staphylococcus aureus
[10] = system: Staphylococcus aureus ATCC 2592
[11] = system: Bacillus subtilis
[12] = system: Candida albicans ATCC 2002
[13] = system: Escherichia coli UB1005
[14] = system: Pseudomonas aeruginosa PAO1
[15] = system: Staphylococcus aureus ATCC 25923

Question: How did the MIC [1] turn out when `NC(=O)CC[C@H](NC(=O)[C@H](Cc1c[nH]c2ccccc12)NC(=O)[C@@H](N)Cc1ccccc1)C(=O)N[C@@H](CCCN=C(N)N)C(=O)N[C@@H](CC(N)=O)C(=O)N[C@@H](Cc1c[nH]c2ccccc12)C(=O)N[C@@H](CCCN=C(N)N)C(=O)N[C@@H](Cc1ccccc1)C(=O)N[C@@H](CCCN=C(N)N)C(=O)N[C@@H](CCCN=C(N)N)C(N)=O` [FWQRNWRFRR] was run?
Answer: ≥ 161 µM

Question: Which MIC [1] does the source give for `CC[C@H](C)[C@H](NC(=O)[C@H](CC(N)=O)NC(=O)[C@H](CCCN=C(N)N)NC(=O)[C@H](CCC(N)=O)NC(=O)[C@H](Cc1c[nH]c2ccccc12)NC(=O)[C@@H](N)Cc1ccccc1)C(=O)N[C@@H](Cc1c[nH]c2ccccc12)C(=O)N[C@@H](CCCN=C(N)N)C(=O)N[C@@H](CCCN=C(N)N)C(N)=O` [FWQRNIWRR] here?
Answer: ≥ 184 µM

Question: `CC[C@H](C)[C@H](NC(=O)[C@H](CCCN=C(N)N)NC(=O)[C@H](CCCN=C(N)N)NC(=O)[C@@H]1CCCN1C(=O)[C@@H]1CCCN1C(=O)[C@H](CCCN=C(N)N)NC(=O)[C@@H]1CCCN1C(=O)[C@H](CCCN=C(N)N)NC(=O)[C@@H]1CCCN1C(=O)[C@H](CC(C)C)NC(=O)[C@H](CCCN=C(N)N)NC(=O)[C@@H]1CCCN1C(=O)[C@@H]1CCCN1C(=O)[C@H](CCCCN)NC(=O)[C@H](CC(=O)O)NC(=O)[C@@H](N)C(C)C)C(=O)N[C@@H](Cc1ccc(O)cc1)C(=O)N[C@@H](CC(N)=O)C(=O)N[C@@H](CCCN=C(N)N)C(N)=O` [VDKPPRLPRPRPPRRIYNR] was tested. Which MIC [2] did it give?
Answer: 1.38 µM (≈ 3.3 µg/mL)

Question: With `CC[C@H](C)[C@H](NC(=O)[C@H](CCCN=C(N)N)NC(=O)[C@H](CCCN=C(N)N)NC(=O)[C@@H]1CCCN1C(=O)[C@@H]1CCCN1C(=O)[C@H](CCCN=C(N)N)NC(=O)[C@@H]1CCCN1C(=O)[C@H](CCCN=C(N)N)NC(=O)[C@@H]1CCCN1C(=O)[C@H](CC(C)C)NC(=O)[C@H](CCCN=C(N)N)NC(=O)[C@H](Cc1cnc[nH]1)NC(=O)[C@H](CCCN=C(N)N)NC(=O)[C@H](CCCCN)NC(=O)[C@H](CC(=O)O)NC(=O)[C@@H](N)C(C)C)C(=O)N[C@@H](Cc1ccc(O)cc1)C(=O)N[C@@H](CC(N)=O)C(=O)N[C@@H](CCCN=C(N)N)C(N)=O` [VDKRHRLPRPRPPRRIYNR] as the compound, how does the MIC [2] read?
Answer: 0.524 µM (≈ 1.3 µg/mL)

Question: Which results are given for `CCC(C)C(NC(=O)C(CC(N)=O)NC(=O)C(CCCN=C(N)N)NC(=O)C(CCC(N)=O)NC(=O)C(Cc1c[nH]c2ccccc12)NC(=O)C(CCC(N)=O)NC(=O)C(N)Cc1ccccc1)C(=O)NC(CCCN=C(N)N)C(=O)NC(CCCCN)C(=O)NC(C(=O)NC(CCCN=C(N)N)C(N)=O)C(C)C` (centres undefined) [FQWQRNIRKVR]?
Answer: MIC [1]: ≥ 163 µM; MIC [3]: > 163 µM

Question: `CC(C)C[C@H](NC(=O)[C@H](C)NC(=O)CNC(=O)[C@H](Cc1c[nH]c2ccccc12)NC(=O)[C@H](CC(N)=O)NC(=O)[C@@H](N)CC(C)C)C(=O)N[C@@H](CC(C)C)C(=O)N[C@@H](CCCCN)C(=O)N[C@@H](Cc1cnc[nH]1)C(=O)N[C@@H](CC(C)C)C(=O)N[C@@H](CC(C)C)C(=O)N[C@@H](CCCCN)C(N)=O` [LNWGALLKHLLK] was tested. Which MIC [4] did it give?
Answer: 3.8 µM (≈ 5.34 µg/mL)

Question: What about the MIC [5] of the same compound?
Answer: 6.7 µM (≈ 9.41 µg/mL)

Question: What about the MIC [6] of the same compound?
Answer: 1.6 µM (≈ 2.25 µg/mL)

Question: And the MIC [7]?
Answer: 2.2 µM (≈ 3.09 µg/mL)

Question: What about the MIC [8] of the same compound?
Answer: 40 µM (≈ 56.2 µg/mL)

Question: What about the MIC [9] of the same compound?
Answer: 6.7 µM (≈ 9.41 µg/mL)

Question: Which MIC [4] does the source give for `CC[C@H](C)[C@H](NC(=O)[C@H](Cc1cnc[nH]1)NC(=O)[C@H](CCCCN)NC(=O)[C@H](CC(C)C)NC(=O)[C@H](CCCCN)NC(=O)[C@H](C)NC(=O)CNC(=O)[C@H](Cc1c[nH]c2ccccc12)NC(=O)[C@H](CC(N)=O)NC(=O)[C@@H](N)CC(C)C)C(=O)N[C@H](C(=O)N[C@@H](CCCCN)C(N)=O)[C@@H](C)CC` [LNWGAKLKHIIK] here?
Answer: ≥ 100 µM

Question: What about the MIC [5] of the same compound?
Answer: ≥ 50 µM

Question: And the MIC [6]?
Answer: ≥ 55.8 µM

Question: And the MIC [7]?
Answer: ≥ 38.8 µM

Question: What about the MIC [8] of the same compound?
Answer: > 100 µM

Question: And the MIC [9]?
Answer: > 100 µM

Question: Which MIC [1] does the source give for `CC[C@H](C)[C@H](NC(=O)[C@H](CCCN=C(N)N)NC(=O)[C@@H](NC(=O)[C@H](CC(N)=O)NC(=O)[C@H](CCCN=C(N)N)NC(=O)CNC(=O)[C@H](Cc1c[nH]c2ccccc12)NC(=O)[C@@H](N)Cc1ccccc1)[C@@H](C)CC)C(=O)N[C@@H](CCCN=C(N)N)C(=O)N[C@@H](CCCN=C(N)N)C(N)=O` [FWGRNIRIRR] here?
Answer: ≥ 182 µM

Question: Which MIC [1] does the source give for `CC[C@H](C)[C@H](NC(=O)[C@H](CC(N)=O)NC(=O)[C@H](CCCN=C(N)N)NC(=O)[C@H](C)NC(=O)[C@H](Cc1c[nH]c2ccccc12)NC(=O)[C@@H](NC(=O)[C@@H](N)Cc1ccccc1)C(C)C)C(=O)N[C@@H](CCCN=C(N)N)C(=O)N[C@@H](CCCCN)C(=O)N[C@H](C(=O)N[C@@H](CCCN=C(N)N)C(N)=O)C(C)C` [FVWARNIRKVR] here?
Answer: ≥ 173 µM

Question: With `CC[C@H](C)[C@H](NC(=O)[C@H](CC(C)C)NC(=O)[C@H](CC(=O)O)NC(=O)[C@H](CCC(N)=O)NC(=O)[C@H](CCC(N)=O)NC(=O)[C@H](CC(C)C)NC(=O)[C@H](CCC(=O)O)NC(=O)[C@@H]1CCCN1C(=O)[C@@H](N)Cc1ccc(O)cc1)C(=O)N[C@@H](C)C(=O)N[C@@H](CCCN=C(N)N)C(=O)N[C@@H](CC(C)C)C(=O)N[C@@H](CC(C)C)C(=O)O` [YPELQQDLIARLL] as the compound, how does the MIC [10] read?
Answer: 4.01 µM (≈ 6.3 µg/mL)

Question: And the MIC [11]?
Answer: 1.97 µM (≈ 3.1 µg/mL)

Question: What about the MIC [3] of the same compound?
Answer: 31.8 µM (≈ 50 µg/mL)

Question: What about the MIC [12] of the same compound?
Answer: 15.9 µM (≈ 25 µg/mL)

Question: How did the MIC [2] turn out when `CC[C@H](C)[C@H](NC(=O)[C@H](CCCN=C(N)N)NC(=O)[C@H](CCCN=C(N)N)NC(=O)[C@@H]1CCCN1C(=O)[C@@H]1CCCN1C(=O)[C@H](CCCN=C(N)N)NC(=O)[C@H](CCCN=C(N)N)NC(=O)[C@H](CCCN=C(N)N)NC(=O)[C@@H]1CCCN1C(=O)[C@H](CCCN=C(N)N)NC(=O)[C@H](Cc1ccc(O)cc1)NC(=O)[C@@H]1CCCN1C(=O)[C@H](CCCCN)NC(=O)[C@H](CCCCN)NC(=O)[C@H](CC(=O)O)NC(=O)[C@@H](N)C(C)C)C(=O)N[C@@H](Cc1ccc(O)cc1)C(=O)N[C@@H](CC(N)=O)C(=O)N[C@@H](CCCN=C(N)N)C(N)=O` [VDKKPYRPRRRPPRRIYNR] was run?
Answer: 0.634 µM (≈ 1.6 µg/mL)

Question: With `CC[C@H](C)[C@H](NC(=O)[C@H](CCCN=C(N)N)NC(=O)[C@H](CCCN=C(N)N)NC(=O)[C@@H]1CCCN1C(=O)[C@@H]1CCCN1C(=O)[C@H](CCCN=C(N)N)NC(=O)[C@@H]1CCCN1C(=O)[C@H](CCCN=C(N)N)NC(=O)[C@@H]1CCCN1C(=O)[C@H](CC(C)C)NC(=O)[C@H](CCCCN)NC(=O)[C@@H]1CCCN1C(=O)[C@@H]1CCCN1C(=O)[C@H](CCCCN)NC(=O)[C@H](CC(=O)O)NC(=O)[C@@H](N)C(C)C)C(=O)N[C@@H](Cc1ccc(O)cc1)C(=O)N[C@@H](CC(N)=O)C(=O)N[C@@H](CCCN=C(N)N)C(N)=O` [VDKPPKLPRPRPPRRIYNR] as the compound, how does the MIC [2] read?
Answer: 2.04 µM (≈ 4.8 µg/mL)

Question: How did the MIC [2] turn out when `CC[C@H](C)[C@H](NC(=O)[C@H](CCCN=C(N)N)NC(=O)[C@H](CCCN=C(N)N)NC(=O)[C@@H]1CCCN1C(=O)[C@@H]1CCCN1C(=O)[C@H](CCCN=C(N)N)NC(=O)[C@@H]1CCCN1C(=O)[C@H](CCCN=C(N)N)NC(=O)[C@@H]1CCCN1C(=O)[C@H](CC(C)C)NC(=O)[C@H](Cc1ccc(O)cc1)NC(=O)[C@@H]1CCCN1C(=O)[C@H](CC(=O)O)NC(=O)[C@H](CCCCN)NC(=O)[C@H](CC(=O)O)NC(=O)[C@@H](N)C(C)C)C(=O)N[C@@H](Cc1ccc(O)cc1)C(=O)N[C@@H](CC(N)=O)C(=O)N[C@@H](CCCN=C(N)N)C(N)=O` [VDKDPYLPRPRPPRRIYNR] was run?
Answer: 1.99 µM (≈ 4.8 µg/mL)

Question: `CC[C@H](C)[C@H](NC(=O)[C@H](CC(N)=O)NC(=O)[C@H](CCCN=C(N)N)NC(=O)[C@H](CCC(N)=O)NC(=O)[C@H](Cc1c[nH]c2ccccc12)NC(=O)[C@@H](N)Cc1ccccc1)C(=O)N[C@@H](CCCN=C(N)N)C(=O)N[C@@H](CCCCN)C(=O)N[C@@H](CC(C)C)C(=O)N[C@@H](CCCN=C(N)N)C(N)=O` [FWQRNIRKLR] was tested. Which MIC [1] did it give?
Answer: ≥ 176 µM

Question: `CC[C@H](C)[C@H](NC(=O)[C@H](CCCN=C(N)N)NC(=O)[C@H](CCCN=C(N)N)NC(=O)[C@@H]1CCCN1C(=O)[C@@H]1CCCN1C(=O)[C@H](CCCN=C(N)N)NC(=O)[C@H](CCCN=C(N)N)NC(=O)[C@H](CCCN=C(N)N)NC(=O)[C@@H]1CCCN1C(=O)[C@H](CC(C)C)NC(=O)[C@H](Cc1ccc(O)cc1)NC(=O)[C@@H]1CCCN1C(=O)[C@@H]1CCCN1C(=O)[C@H](CCCCN)NC(=O)[C@H](CC(=O)O)NC(=O)[C@@H](N)C(C)C)C(=O)N[C@@H](Cc1ccc(O)cc1)C(=O)N[C@@H](CC(N)=O)C(=O)N[C@@H](CCCN=C(N)N)C(N)=O` [VDKPPYLPRRRPPRRIYNR] was tested. Which MIC [13] did it give?
Answer: 2.04 µM (≈ 5 µg/mL)

Question: What about the MIC [14] of the same compound?
Answer: 26.1 µM (≈ 64 µg/mL)

Question: What about the MIC [15] of the same compound?
Answer: 6.53 µM (≈ 16 µg/mL)

Question: And the MIC [2]?
Answer: 0.98 µM (≈ 2.4 µg/mL)

Question: `CC[C@H](C)[C@H](NC(=O)[C@H](CCCCN)NC(=O)[C@H](CCCN=C(N)N)NC(=O)[C@@H](NC(=O)[C@H](CC(N)=O)NC(=O)[C@H](CCCN=C(N)N)NC(=O)[C@H](CCC(N)=O)NC(=O)[C@H](Cc1c[nH]c2ccccc12)NC(=O)[C@@H](N)Cc1ccccc1)[C@@H](C)CC)C(=O)N[C@@H](CCCN=C(N)N)C(N)=O` [FWQRNIRKIR] was tested. Which MIC [1] did it give?
Answer: ≥ 176 µM

Question: `CC[C@H](C)[C@H](NC(=O)[C@H](C)NC(=O)CNC(=O)[C@H](Cc1c[nH]c2ccccc12)NC(=O)[C@H](CC(N)=O)NC(=O)[C@@H](N)CC(C)C)C(=O)N[C@@H](CC(C)C)C(=O)N[C@@H](CCCCN)C(=O)N[C@@H](Cc1cnc[nH]1)C(=O)N[C@@H](CCCCN)C(=O)N[C@H](C(=O)N[C@@H](CCCCN)C(N)=O)[C@@H](C)CC` [LNWGAILKHKIK] was tested. Which MIC [4] did it give?
Answer: ≥ 100 µM

Question: What about the MIC [5] of the same compound?
Answer: ≥ 100 µM

Question: What about the MIC [6] of the same compound?
Answer: ≥ 41.7 µM

Question: And the MIC [7]?
Answer: 30 µM (≈ 42.6 µg/mL)

Question: What about the MIC [8] of the same compound?
Answer: > 100 µM

Question: What about the MIC [9] of the same compound?
Answer: > 100 µM
